# Experimental data: patent US7265152B2 (ViroPharma Incorporated, priority 2002, dated 2007)
# Like-named read-outs stand apart in the source and are kept apart here.
# Legend:
# [1] = test system: HCV replicon (BB7 sequence) in Huh-7-Clone A cells; assay: HCV replicon assay: ELISA of NS5A protein in replicon-containing cells (Inhibition of Viral RNA Replication); assay type: cell-based; conditions: ranges of EC50 in HCV replicon assay, read-out: Replicon
# Procedure, shortened: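 EC50 taken from an 8-point serially diluted dose curve, with NS5A level as read-out: fixed cells probed with primary monoclonal and HRP-conjugated secondary, TMB developed 30 min, OD 650 nm. Compound exposure 72 h in Huh-7-Clone A replicon cells (BB7 sequence).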
# [2] = target: T1, HCV NS5B (Hepatitis C virus genotype 1b, UniProt Q9WMX2); assay: Inhibition of viral RNA-dependent RNA polymerase (RdRp), in vitro biochemical assay; set-up: species or system HCV genotype 1b virus (BB7); conditions: HCV NS5B RdRp, BB7 genotype 1b; read-out: HCV pol-BB7 IC50
# T1 construct: fusion protein, of which the carboxyl terminal 21 amino acids were removed to enhance its solubility; His tag (GSHHHHHH); made in house; host or cells: E. coli
# Procedure, shortened: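 IC50 values are the concentrations that halve in vitro RNA synthesis by HCV NS5B polymerase. The enzyme was a C-terminally truncated (Δ21), His-tagged genotype 1b (BB7 consensus) protein purified from E. coli.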
SMILES,EC50 ([1]; Hepatitis C virus),IC50 [2],EC50 [1]
"CNC(=O)c1c(-c2ccc(F)cc2)oc2cc(N3CCOCC3)c(OC)cc12 [Example 103, 2-(4-Fluoro-phenyl)-5-methoxy-6-morpholin-4-yl-benzofuran-3-carboxylic acid methylamide]",< 1000 nM,≤ 500 nM,
"CNC(=O)c1c(-c2ccc(F)c(O)c2)oc2ccc(OC(C)C)cc12 [Example 105, 2-(4-Fluoro-3-hydroxy-phenyl)-5-isopropoxy-benzofuran-3-carboxylic acid methylamide]",< 30000 nM,5000 to 30000 nM,
"CNC(=O)c1c(-c2ccc(C#N)cc2)oc2ccc(OC(C)C)cc12 [Example 106, 2-(4-Cyano-phenyl)-5-isopropoxy-benzofuran-3-carboxylic acid methylamide]",< 30000 nM,500 to 5000 nM,
"CNC(=O)c1c(-c2ccncc2)oc2ccc(OC)cc12 [Example 107, 5-Methoxy-2-pyridin-4-yl-benzofuran-3-carboxylic acid methylamide]",< 100000 nM,500 to 5000 nM,
"CNC(=O)c1c(-c2ccc(F)cc2)oc2cc(N3CCC(S(C)(=O)=O)C3)c(OC(C)C)cc12 (stereo not drawn) [Example 108, 2-(4-Fluoro-phenyl)-5-isopropoxy-6-(3-methanesulfonyl-pyrrolidin-1-yl)-benzofuran-3-carboxylic acid methylamide]",< 1000 nM,≤ 500 nM,
CNC(=O)c1c(-c2ccc(F)cc2)oc2cc(N3CCC3)c(OC(C)C)cc12 [Example 109],,≤ 500 nM,< 1000 nM
CNC(=O)c1c(-c2ccc(F)cc2)oc2cc(N3CCC(O)C3)c(OC(C)C)cc12 (stereo not drawn) [Example 110],< 1000 nM,≤ 500 nM,
"CNC(=O)c1c(-c2ccc(F)cc2)oc2cc(N(C)S(C)(=O)=O)c(OC(C)C)cc12 [Example 111, 2-(4-Fluoro-phenyl)-5-isopropoxy-6-(methanesulfonyl-methyl-amino)-benzofuran-3-carboxylic acid methylamide]",< 1000 nM,≤ 500 nM,
"CNC(=O)c1c(-c2ccc(F)cc2)oc2cc(NCc3ccoc3)c(OC(C)C)cc12 [Example 112, 2-(4-Fluoro-phenyl)-6-[(furan-3-ylmethyl)-amino]-5-isopropoxy-benzofuran-3-carboxylic acid methylamide]",< 1000 nM,≤ 500 nM,
"CNC(=O)c1c(-c2ccc(F)cc2)oc2cc(NCC(O)CO)c(OC(C)C)cc12 (stereo not drawn) [Example 113, 6-(2,3-Dihydroxy-propylamino)-2-(4-fluoro-phenyl)-5-isopropoxy-benzofuran-3-carboxylic acid methylamide]",< 10000 nM,500 to 5000 nM,
"CNC(=O)c1c(-c2ccc(F)cc2)oc2cc(NC(C)C)c(OC(C)C)cc12 [Example 114, 2-(4-Fluoro-phenyl)-5-isopropoxy-6-isopropylamino-benzofuran-3-carboxylic acid methylamide]",< 1000 nM,≤ 500 nM,
"CNC(=O)c1c(-c2ccc(F)cc2)oc2cc(NCC3CC3)c(OC(C)C)cc12 [Example 115, 6-(Cyclopropylmethyl-amino)-2-(4-fluoro-phenyl)-5-isopropoxy-benzofuran-3-carboxylic acid methylamide]",< 1000 nM,≤ 500 nM,
"CNC(=O)c1c(-c2ccc(F)cc2)oc2cc(N3CCCC3)c(OC)cc12 [Example 116, 2-(4-Fluoro-phenyl)-5-methoxy-6-pyrrolidin-1-yl-benzofuran-3-carboxylic acid methylamide]",< 1000 nM,≤ 500 nM,
"CNC(=O)c1c(-c2ccc(F)cc2)oc2cc(N3CCOCC3)c(OCc3ccccc3)cc12 [Example 117, 5-Benzyloxy-2-(4-fluoro-phenyl)-6-morpholin-4-yl-benzofuran-3-carboxylic acid methylamide]",< 1000 nM,≤ 500 nM,
"CNC(=O)c1c(-c2ccccc2)oc2ccc(CO)cc12 [Example 118, 5-Hydroxymethyl-2-phenyl-benzofuran-3-carboxylic acid methylamide]",> 100000 nM,5000 to 30000 nM,
"CNC(=O)c1c(-c2ccc(F)cc2)oc2cc(N(C)CCOC)c(OC(C)C)cc12 [Example 119, 2-(4-Fluoro-phenyl)-5-isopropoxy-6-[(2-methoxy-ethyl)-methyl-amino]-benzofuran-3-carboxylic acid methylamide]",< 1000 nM,≤ 500 nM,
"CNC(=O)c1c(-c2ccc(F)cc2)oc2cc(N)c(OCc3ccccc3)cc12 [Example 120, 6-Amino-5-benzyloxy-2-(4-fluoro-phenyl)-benzofuran-3-carboxylic acid methylamide]",< 10000 nM,≤ 500 nM,

SMILES,EC50 ([1]; Hepatitis C virus),IC50 [2],EC50 [1]
"CNC(=O)c1c(-c2occc2C)oc2ccc(OC(C)C)cc12 [Example 121, 5-Isopropoxy-2-(3-methyl-furan-2-yl)-benzofuran-3-carboxylic acid methylamide]",< 30000 nM,500 to 5000 nM,
"CNC(=O)c1c(-c2ccc(F)cc2)oc2cc(NS(C)(=O)=O)c(OC)cc12 [Example 122, 2-(4-Fluoro-phenyl)-6-methanesulfonylamino-5-methoxy-benzofuran-3-carboxylic acid methylamide]",< 1000 nM,≤ 500 nM,
"CNC(=O)c1c(-c2ccc(F)cc2)oc2cc(NCC3CCCO3)c(OC(C)C)cc12 (stereo not drawn) [Example 123, 2-(4-Fluoro-phenyl)-5-isopropoxy-6-[(tetrahydro-furan-2-ylmethyl)-amino]-benzofuran-3-carboxylic acid methylamide]",< 10000 nM,≤ 500 nM,
"CNC(=O)c1c(-c2ccc(F)cc2)oc2cc(N3CCOCC3)c(OCC3CC3)cc12 [Example 125, 5-Cyclopropylmethoxy-2-(4-fluoro-phenyl)-6-morpholin-4-yl-benzofuran-3-carboxylic acid methylamide]",< 1000 nM,≤ 500 nM,
"CNC(=O)c1c(-c2ccc(F)cc2)oc2cc(Cl)c(OC)cc12 [Example 126, 6-Chloro-2-(4-fluoro-phenyl)-5-methoxy-benzofuran-3-carboxylic acid methylamide]",< 1000 nM,≤ 500 nM,
"CCNC(=O)c1c(-c2ccccc2)oc2ccc(OC)cc12 [Example 130, 5-Methoxy-2-phenyl-benzofuran-3-carboxylic acid ethylamide]",< 10000 nM,5000 to 30000 nM,
"CNC(=O)c1c(-c2ccc(F)cc2)oc2cc(Nc3ccncc3)c(OC(C)C)cc12 [Example 131, 2-(4-Fluoro-phenyl)-5-isopropoxy-6-(pyridin-4-ylamino)-benzofuran-3-carboxylic acid methylamide]",< 30000 nM,500 to 5000 nM,
"CNC(=O)c1c(-c2ccc(F)cc2)oc2cc(N3CCN(C)CC3)c(OC(C)C)cc12 [Example 132, 2-(4-Fluoro-phenyl)-5-isopropoxy-6-(4-methyl-piperazin-1-yl)-benzofuran-3-carboxylic acid methylamide]",> 30000 nM,5000 to 30000 nM,
"CNC(=O)c1c(-c2ccc(F)cc2)oc2cc(NS(=O)(=O)CCCCl)c(OC(C)C)cc12 [Example 133, 6-(3-Chloro-propane-1-sulfonylamino)-2-(4-fluoro-phenyl)-5-isopropoxy-benzofuran-3-carboxylic acid methylamide]",< 1000 nM,500 to 5000 nM,
"CNC(=O)c1c(-c2ccc(F)cc2)oc2cc(N3CCCS3(=O)=O)c(OC(C)C)cc12 [Example 134, 6-(1,1-Dioxido-isothiazolidin-2-yl)-2-(4-fluoro-phenyl)-5-isopropoxy-benzofuran-3-carboxylic acid methylamide]",< 10000 nM,500 to 5000 nM,
"CNC(=O)c1c(-c2ccc(F)cc2)oc2cc(N(C(C)C)S(C)(=O)=O)c(OC(C)C)cc12 [Example 136, 2-(4-Fluoro-phenyl)-5-isopropoxy-6-(isopropyl-methanesulfonyl-amino)-benzofuran-3-carboxylic acid methylamide]",< 1000 nM,≤ 500 nM,
"CNC(=O)c1c(-c2ccc(F)cc2)oc2cc(N(CC3CC3)S(C)(=O)=O)c(OC(C)C)cc12 [Example 137, 6-(Cyclopropylmethyl-methanesulfonyl-amino)-2-(4-fluoro-phenyl)-5-isopropoxy-benzofuran-3-carboxylic acid methylamide]",< 1000 nM,≤ 500 nM,
"CNC(=O)c1c(-c2ccc(F)cc2)oc2cc(N3CC(C)OC(C)C3)c(OC(C)C)cc12 (stereo not drawn) [Example 138, 6-(2,6-Dimethyl-morpholin-4-yl)-2-(4-fluoro-phenyl)-5-isopropoxy-benzofuran-3-carboxylic acid methylamide]",< 10000 nM,500 to 5000 nM,
"CNC(=O)c1c(-c2ccc(F)cc2)oc2cc(-c3nnn[nH]3)c(OC(C)C)cc12 [Example 139, 2-(4-Fluoro-phenyl)-5-isopropoxy-6-(1H-tetrazol-5-yl)-benzofuran-3-carboxylic acid methylamide]",> 30000 nM,500 to 5000 nM,
"CNC(=O)c1c(-c2ccc(F)cc2)oc2cc(N3CCC(O)CC3)c(OC(C)C)cc12 [Example 140, 2-(4-Fluoro-phenyl)-6-(4-hydroxy-piperidin-1-yl)-5-isopropoxy-benzofuran-3-carboxylic acid methylamide]",< 10000 nM,500 to 5000 nM,
"CNC(=O)c1c(-c2ccc(F)cc2)oc2cc(N3CCCC(O)C3)c(OC(C)C)cc12 (stereo not drawn) [Example 141, 2-(4-Fluoro-phenyl)-6-(3-hydroxy-piperidin-1-yl)-5-isopropoxy-benzofuran-3-carboxylic acid methylamide]",< 10000 nM,500 to 5000 nM,
